From patent US12396461B2, “Functional peptides having antimicrobial activity against phytopathogenic microorganisms” (TOYOTA JIDOSHA KABUSHIKI KAISHA, priority 2019, dated 2025)
Several values for one entry are separate records, joined by “and”; a condition that tells them apart may be missing. Equal values may be shown once. Read-outs that look alike come from different tables or passages of the source.

How the values were obtained:
Botrytis cinerea [1] = format: cell-based; set-up: key to Plate antimicrobial activity test Botrytis cinerea, level: a case where hyphae extended to the entire well and no antimicrobial activity was found is defined as “level 0,”; a case where hyphae extended to less than a half of the well and thus the peptide inhibited the growth of the hyphae is defined as “level 1,”; a case where ungerminated spores were present and the peptide partially inhibited the germination is defined as “level 2,”; a case where all spores were ungerminated and the peptide completely inhibited the germination is defined as “level 3.”; details: 25° C. for 1 day or 2 days, microscopic observation
[2] = system: Colletotrichum destructivum; format: cell-based; set-up: key to Plate antimicrobial activity test Colletotrichum destructivum, level: a case where hyphae extended to the entire well and no antimicrobial activity was found is defined as “level 0,”; a case where hyphae extended to less than a half of the well and thus the peptide inhibited the growth of the hyphae is defined as “level 1,”; a case where ungerminated spores were present and the peptide partially inhibited the germination is defined as “level 2,”; a case where all spores were ungerminated and the peptide completely inhibited the germination is defined as “level 3.”; details: 25° C. for 1 day or 2 days, microscopic observation
[3] = system: Colletotrichum orbiculare; format: cell-based; set-up: key to Plate antimicrobial activity test Colletotrichum orbiculare, level: a case where hyphae extended to the entire well and no antimicrobial activity was found is defined as “level 0,”; a case where hyphae extended to less than a half of the well and thus the peptide inhibited the growth of the hyphae is defined as “level 1,”; a case where ungerminated spores were present and the peptide partially inhibited the germination is defined as “level 2,”; a case where all spores were ungerminated and the peptide completely inhibited the germination is defined as “level 3.”; details: 25° C. for 1 day or 2 days, microscopic observation
Fusarium oxysporum = format: cell-based; set-up: key to Plate antimicrobial activity test Fusarium oxysporum, level: a case where hyphae extended to the entire well and no antimicrobial activity was found is defined as “level 0,”; a case where hyphae extended to less than a half of the well and thus the peptide inhibited the growth of the hyphae is defined as “level 1,”; a case where ungerminated spores were present and the peptide partially inhibited the germination is defined as “level 2,”; a case where all spores were ungerminated and the peptide completely inhibited the germination is defined as “level 3.”
Pyricularia oryzae = format: cell-based; set-up: key to Plate antimicrobial activity test Pyricularia oryzae, level: a case where hyphae extended to the entire well and no antimicrobial activity was found is defined as “level 0,”; a case where hyphae extended to less than a half of the well and thus the peptide inhibited the growth of the hyphae is defined as “level 1,”; a case where ungerminated spores were present and the peptide partially inhibited the germination is defined as “level 2,”; a case where all spores were ungerminated and the peptide completely inhibited the germination is defined as “level 3.”; details: 25° C. for 1 day or 2 days, microscopic observation
Botrytis cinerea [4] = test: Botrytis cinerea leaf inoculation test (tomato leaf); format: in vivo; details: FIG. 2; PDB suspension spore solution containing 100 μl peptide; 25° C. for 2 days
Experimental: In the present example, a suspension comprising Botrytis cinerea and a peptide to be tested was dropped on a plant leaf, and lesions were then observed by visual inspection to evaluate the antimicrobial activity of the tested peptide. First, the pores of Botrytis cinerea were suspended in a potato dextrose broth (PDB) to result in a spore concentration of 5×10^5 spores/ml, so as to prepare a PDB suspension spore solution. Subsequently, a peptide to be tested (TsORF6-1) was added to the PDB suspension spore solution, so that the final concentration of the peptide to be tested became 0 μM, 1 μM, 10 μM or 100 μM. Thereafter, 10 μl each of the PDB suspension spore solution containing the peptide to be tested was dropped on the front side and the back side of the leaf of tomato (variety name: “Momotaro Fight”). In this condition, incubation was carried out at 25° C. for 2 days. Thereafter, the front and back sides of the leaf were observed by visual inspection.

[5] = system: Colletotrichum destructivum; test: Colletotrichum destructivum leaf inoculation test (Chinese cabbage leaf); format: in vivo; details: Chinese cabbage leaf, 25° C. for 4 days, lesions by visual inspection, symbols ◯/Δ/X not defined
Experimental: In the present example, a suspension comprising Colletotrichum destructivum and a peptide to be tested was dropped on a plant leaf, and lesions were then observed by visual inspection to evaluate the antimicrobial activity of the tested peptide. First, the pores of Colletotrichum destructivum were suspended in water to result in a spore concentration of 5×10^5 spores/ml, so as to prepare a water suspension of spores. Subsequently, a peptide to be tested (TsORF6-1) was added to the water suspension of spores, so that the final concentration of the peptide to be tested became 0 μM, 1 μM, 10 μM or 100 μM. Thereafter, 10 μl each of the water suspension of spores containing the peptide to be tested was dropped on the front side and the back side of the leaf of Chinese cabbage (variety name: “Kigokoro 85”). In this condition, incubation was carried out at 25° C. for 4 days. Thereafter, the front and back sides of the leaf were observed by visual inspection.

[6] = system: plant pathogenic filamentous fungi; format: cell-based; details: Table 3

Substance | Plate antimicrobial activity test Botrytis cinerea, level (Botrytis cinerea [1]; peptide 1 μM) | Plate antimicrobial activity test Botrytis cinerea, level (Botrytis cinerea [1]; peptide 10 μM) | Plate antimicrobial activity test Botrytis cinerea, level (Botrytis cinerea [1]; peptide 100 μM) | Plate antimicrobial activity test Colletotrichum destructivum, level ([2]; peptide 1 μM) | Plate antimicrobial activity test Colletotrichum destructivum, level ([2]; peptide 10 μM) | Plate antimicrobial activity test Colletotrichum destructivum, level ([2]; peptide 100 μM) | Plate antimicrobial activity test Colletotrichum orbiculare, level ([3]; peptide 1 μM) | Plate antimicrobial activity test Colletotrichum orbiculare, level ([3]; peptide 10 μM) | Plate antimicrobial activity test Colletotrichum orbiculare, level ([3]; peptide 100 μM) | Plate antimicrobial activity test Fusarium oxysporum, level (Fusarium oxysporum) | Plate antimicrobial activity test Pyricularia oryzae, level (Pyricularia oryzae; peptide 1 μM) | Plate antimicrobial activity test Pyricularia oryzae, level (Pyricularia oryzae; peptide 10 μM) | Plate antimicrobial activity test Pyricularia oryzae, level (Pyricularia oryzae; peptide 100 μM) | lesion of Botrytis cinerea on tomato leaf, result in words (Botrytis cinerea [4]) | Leaf inoculation test Chinese cabbage/Colletotrichum destructivum ([5]; peptide 10 μM) | Leaf inoculation test Chinese cabbage/Colletotrichum destructivum ([5]; peptide 100 μM) | germination inhibitory activity against plant pathogenic filamentous fungi, result in words [6]
MKVMIVVKTKVKNKKVAKMMVKEDEKNKRVITMKEELMVVAEEEAYRRV RGGMGW (MKVMIVVKTKVKNKKVAKMMVKEDEKNKRVITMKEELMVVAEEEAYRRVRGGMGW; listed as Solanum lycopersicum) [TsORF6, peptide consisting of 55 amino acid residues identified in tomato xylem sap; total chain] | 0 | 0 | 3 | 0 | 0 | 0 | 0 | 0 | 1 | 3 and 0 | 0 | 0 | 2 | a lesion of Botrytis cinerea was not observed | ◯ | ◯ | 
MKVMIVVK (listed as Solanum lycopersicum) [TsORF6-1-8aa-1, partial peptide of TsORF6-1, 8 amino acid residues] | 0 | 0 | 2 | 0 | 0 | 3 | 0 | 0 | 3 | 3 and 0 | 0 | 0 | 3 |  | Δ | ◯ | extremely excellent germination inhibitory activity
KVMIV (listed as Solanum lycopersicum) [TsORF6-1-5aa-2, partial peptide of TsORF6-1, 5 amino acid residues] | 0 | 0 | 1 | 0 | 0 | 1 | 0 | 0 | 1 | 0 | 0 | 0 | 0 |  |  | ◯ | extremely excellent germination inhibitory activity
VMIVV (listed as Solanum lycopersicum) [TsORF6-1-5aa-3, partial peptide of TsORF6-1, 5 amino acid residues] | 0 | 0 | 1 | 0 | 0 | 1 | 0 | 0 | 1 | 0 | 0 | 0 | 0 |  |  | ◯ | extremely excellent germination inhibitory activity
VMIVVKTK (listed as Solanum lycopersicum) [TsORF6-1-8aa-3, partial peptide of TsORF6-1, 8 amino acid residues] | 0 | 0 | 3 | 0 | 0 | 3 | 0 | 0 | 3 | 3 and 0 | 0 | 0 | 3 |  | ◯ | ◯ | extremely excellent germination inhibitory activity
MKVMI (listed as Solanum lycopersicum) [TsORF6-1-5aa-1, partial peptide of TsORF6-1, 5 amino acid residues] | 0 | 0 | 1 | 0 | 0 | 1 | 0 | 0 | 1 | 0 | 0 | 0 | 1 |  |  | ◯ | extremely excellent germination inhibitory activity
